According to publication PMC6938488, “Nafamostat and sepimostat identified as novel neuroprotective agents via NR2B N-methyl-D-aspartate receptor antagonism using a rat retinal excitotoxicity model” (Scientific Reports, 2019):
Where two headings read alike, the source gives them in different places.

Target: T1, NR2B subunit of NMDA receptor (Rattus norvegicus, UniProt Q00960)
T1 construct: gene Grin2b; native NMDA receptor in rat cerebral cortex membranes; with NR1
Assay type: binding

T1 sequence (Q00960 27-1482, other chains not shown): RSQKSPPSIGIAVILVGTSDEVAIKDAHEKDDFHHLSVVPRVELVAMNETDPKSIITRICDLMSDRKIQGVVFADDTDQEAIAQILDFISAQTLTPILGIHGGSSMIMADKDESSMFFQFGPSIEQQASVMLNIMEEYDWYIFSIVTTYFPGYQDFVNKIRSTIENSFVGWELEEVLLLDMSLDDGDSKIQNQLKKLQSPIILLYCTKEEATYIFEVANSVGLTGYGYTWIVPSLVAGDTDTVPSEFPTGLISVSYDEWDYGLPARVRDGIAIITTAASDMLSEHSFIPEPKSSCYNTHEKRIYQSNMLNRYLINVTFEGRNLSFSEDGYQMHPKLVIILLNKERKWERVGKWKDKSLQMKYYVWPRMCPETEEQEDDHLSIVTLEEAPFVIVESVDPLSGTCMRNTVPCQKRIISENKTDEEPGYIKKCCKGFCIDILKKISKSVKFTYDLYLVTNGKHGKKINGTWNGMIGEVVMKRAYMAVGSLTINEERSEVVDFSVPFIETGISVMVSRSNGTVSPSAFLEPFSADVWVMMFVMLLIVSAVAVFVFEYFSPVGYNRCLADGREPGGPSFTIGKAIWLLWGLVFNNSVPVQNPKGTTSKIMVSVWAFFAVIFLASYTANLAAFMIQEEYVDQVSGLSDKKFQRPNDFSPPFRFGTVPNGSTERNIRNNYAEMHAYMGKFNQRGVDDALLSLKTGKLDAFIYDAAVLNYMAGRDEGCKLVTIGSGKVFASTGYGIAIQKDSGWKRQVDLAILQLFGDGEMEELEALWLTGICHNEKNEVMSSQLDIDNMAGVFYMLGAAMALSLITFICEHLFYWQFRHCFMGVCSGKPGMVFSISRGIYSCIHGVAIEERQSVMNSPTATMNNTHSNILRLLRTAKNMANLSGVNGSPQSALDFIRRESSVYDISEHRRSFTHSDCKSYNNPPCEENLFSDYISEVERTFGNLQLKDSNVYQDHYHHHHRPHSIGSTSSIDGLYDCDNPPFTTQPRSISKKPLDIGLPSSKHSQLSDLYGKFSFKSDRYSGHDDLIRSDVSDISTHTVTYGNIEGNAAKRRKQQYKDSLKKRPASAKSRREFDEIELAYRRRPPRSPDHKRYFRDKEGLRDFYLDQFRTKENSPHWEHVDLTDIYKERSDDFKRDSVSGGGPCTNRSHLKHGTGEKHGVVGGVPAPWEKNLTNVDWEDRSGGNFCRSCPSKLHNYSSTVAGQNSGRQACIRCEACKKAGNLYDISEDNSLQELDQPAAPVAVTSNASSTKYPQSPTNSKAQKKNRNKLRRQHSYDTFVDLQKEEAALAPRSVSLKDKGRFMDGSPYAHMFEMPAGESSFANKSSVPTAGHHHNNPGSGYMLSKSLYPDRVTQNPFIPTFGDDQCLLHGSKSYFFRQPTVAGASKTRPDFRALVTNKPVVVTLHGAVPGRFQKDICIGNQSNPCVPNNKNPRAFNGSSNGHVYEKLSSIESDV

Ki (read-out: Ki)	Compound	Ki
–	N=C(N)c1ccc2cc(OC(=O)c3ccc(N=C(N)N)cc3)ccc2c1 [nafamostat]	4.2 µM
27.7 µM	N=C(N)c1ccc2cc(OC(=O)c3ccc(NC4=NCCN4)cc3)ccc2c1 [sepimostat, 6-amidino-2-naphthyl[4-(4,5-dihydro-1H-imidazol-2-yl)amino] benzoate dimethane sulfonate]	–
